This note sets out measurements from patent US12006332B2, “Aminopyrimidine derivatives as phosphatidylinositol phosphate kinase inhibitors” (HiberCell, Inc., priority 2019, dated 2024).

For one assay, the target named is T1, PIP4K2A (Homo sapiens, UniProt P48426).
T1 construct: made in house; host or cells: E. coli
T1 sequence (P48426 1-406): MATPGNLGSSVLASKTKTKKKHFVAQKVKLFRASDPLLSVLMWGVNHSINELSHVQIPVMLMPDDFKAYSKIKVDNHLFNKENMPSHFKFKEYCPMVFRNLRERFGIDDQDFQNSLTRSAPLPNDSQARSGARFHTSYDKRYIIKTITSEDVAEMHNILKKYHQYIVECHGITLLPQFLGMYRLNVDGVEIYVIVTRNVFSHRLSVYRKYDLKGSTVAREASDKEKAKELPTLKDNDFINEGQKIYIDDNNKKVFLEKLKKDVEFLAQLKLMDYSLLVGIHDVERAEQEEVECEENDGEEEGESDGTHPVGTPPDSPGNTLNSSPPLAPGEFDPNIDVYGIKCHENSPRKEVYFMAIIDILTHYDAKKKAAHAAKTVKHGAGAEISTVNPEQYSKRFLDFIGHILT
The experiment in a line: Kinase Assay-PIP4K2 A (ADP-Glo). The assay is classed as biochemical. How it is done:
Dilution series of the compounds were prepared in DMSO at 100 times the final assay concentration (n1=n0/3 in 10 points). The compounds were further diluted to three times the assay concentration in assay buffer (20 mM MOPS pH 7.2, 25 mM magnesium chloride, 0.005% Tween 20). 6 μL of the diluted compounds were added to a 384 well assay plate followed by 9 μL of a mix consisting of 4 nM PIP4K2A (full length protein, SignalChem) and 100 μM PI(5)P diC8 (Tebu-Bio). Enzyme and compounds were pre-incubated at room temperature for 15 minutes.
Then 3 μL of a solution containing 60 μM ATP (Promega) in assay buffer was added to the wells containing compound and enzyme and mixing was performed by pipetting several times. The reaction was incubated at room temperature for 1 h. Then 18 μL of ADP-Glo™ Reagent (Promega) was added to stop the kinase reaction and deplete the unconsumed ATP, mixing was performed by pipetting several times. The plate was incubated at room temperature for 40 minutes before addition of 36 μL of Kinase Detection Reagent (Promega) to convert ADP to ATP and introduce luciferase and luciferin to detect ATP. The reaction was incubated at room temperature for 40 minutes before the luminescence was measured in a in a Victor 3V 1420 multilabel counter (Perkin Elmer).
Percent inhibition of the compounds as compared to dimethyl sulfoxide treated control samples was calculated. Compound concentration versus percent inhibition were fitted to generate IC50 values. […]

Another assay concerns the target T2, PIP4K2 B (Homo sapiens, UniProt P78356).
T2 construct: made in house; host or cells: E. coli
T2 sequence (P78356 1-416): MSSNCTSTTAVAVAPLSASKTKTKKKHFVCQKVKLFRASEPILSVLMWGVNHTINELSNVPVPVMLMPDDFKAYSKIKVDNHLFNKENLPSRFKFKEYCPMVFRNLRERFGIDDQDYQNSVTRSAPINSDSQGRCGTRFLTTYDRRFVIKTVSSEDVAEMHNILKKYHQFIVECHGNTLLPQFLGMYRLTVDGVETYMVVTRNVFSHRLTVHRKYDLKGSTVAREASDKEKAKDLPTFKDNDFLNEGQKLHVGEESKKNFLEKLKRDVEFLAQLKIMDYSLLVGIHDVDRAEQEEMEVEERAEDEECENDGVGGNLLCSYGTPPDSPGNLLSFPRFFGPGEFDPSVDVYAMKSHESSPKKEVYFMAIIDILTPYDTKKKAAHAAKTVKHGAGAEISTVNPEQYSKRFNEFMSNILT
The experiment in a line: Kinase Assay-PIP4K2 B (Transcreener FI). The assay is classed as biochemical. The text has this:
GST tagged PIP4KtypeIIA and B enzymes were overexpressed in E. Coli and purified to >80% homogeneity. Phosphatidyl inositol-5-phosphate (PI5P, Cat. #850152, Avanti Polar Lipids Inc.) was used as the lipid substrate and phosphatidyl ethanolamine (DOPE 18:1, Cat. #850725, Avanti Polar Lipids Inc.) was used as the carrier lipid for assays. Ultrapure ATP and GTP was purchased from Bellbrooke Labs. ADP Glo reagents were obtained from Promega. Transcreener FI reagent was obtained from Bellbrooke labs.
• 1. HEPES buffer mix: 200 mM HEPES pH 7.4, 50 mM MgCl2, 0.05% v/v triton X 100 • 2. HNE buffer: 20 mM HEPES, pH 7.4, 100 mM NaCl, 0.5 mM EGTA • 3. H:E buffer: 30 mM HEPES, pH 7.4, 1 mM EGTA
GST-tagged PIP4KtypeIIB (3.4 μl, 2.77 mg/mL) was diluted to 5 mL using HNE buffer to yield 5× enzyme stock (25 nM)
Lipid Preparation: In a 10 mL pyrex glass vial, […] were suspended in 2.5 mL of HEPES buffer mix and 2.5 mL of H:E buffer. The contents were mixed and sonicated for 3 min to yield a translucent lipid stock.
Compound Preparation: Compounds were stored as 5 mM stocks in neat DMSO as room temperature in glass vials. 5 mM stocks were diluted to 2 mM and then serially diluted (3×) in neat DMSO in 96 well polypropylene plates. From the serially diluted stocks, 3 μL was delivered into 250 μL of 25% DMSO (in water) to generate 5× compound stocks. Typically, the highest compound conc. was 24 μM.
The assay volume was kept at 25 μL. To each well of the reaction plate, 10 μL of lipid stock (1:1 ratio PI5P:DOPE) was delivered. This was followed by the addition of 5 μL of compound in 25% DMSO. Then, to each well, 5 μL of 25 nM (5×) typeIIB enzyme was delivered. The contents were mixed well and incubated for 1 h at 27° C. After 1 h, reaction was initiated by adding 5 μL of 500 μM GTP and the contents were mixed well with a multi-channel pipetteman. The final concentration of the reagents are as follows: 50 mM HEPES, pH 7.3, 10 mM MgCl2, 20 mM NaCl, 0.01% v/v triton-X100, 5% DMSO, 100 μM GTP, 80 μM (2 μg) PI5P, 2 μg DOPE, and 5 nM PIP4KIIB Typically, the highest conc. of compounds was 4.8 μM and the lowest conc. was 0.
After 2 h, the reaction was quenched by adding 25 μL of transcreener FI reagent. The contents were incubated at rt for 1 h and the Fluorescence (Ex: 584 Em: 623) was read using Molecular Devices Paradigm plate reader. […] The blanks were averaged and subtracted from all other wells. Using a calibration curve, RFU was converted to μM GDP (product). IC50 was calculated by plotting the residual activity (expressed as % No inhibitor control) vs. log [Inh. conc.].

The subject of a further assay is MOLM-16. The experiment in a line: MOLM-16 EC50 assay. The assay is classed as cell-based. The conditions noted are these: MOLM16.

pEC50, pIC50: −log10 of the molar value. Bounds are passed on as bounds.

As for `O=C(O)CNc1nc(Nc2cnc3c(c2)N2C(=O)CC[C@H]2CO3)ncc1-c1ccc(N2CCCC2=O)cc1` [Compound 1, 2-[(2-{[(6S)-3-oxo-8-oxa-2,10-diazatricyclo[7.4.0.0^2,6]trideca-1(9),10,12-trien-12-yl]amino}-5-[4-(2-oxopyrrolidin-1-yl)phenyl]pyrimidin-4-yl)amino]acetic acid], the pIC50 at PIP4K2A and at PIP4K2 B was no less than 9.00 throughout. In the assay with MOLM-16, this molecule gave a pEC50 of less than 6.00.

Turning to `CN(c1nc(Nc2cnc3c(c2)N2C(=O)CC[C@H]2CO3)ncc1-c1ccc(N2CCCC2=O)cc1)[C@H]1CCOC1` [Compound 2, (6S)-12-[(4-{methyl[(3S)-oxolan-3-yl]amino}-5-[4-(2-oxopyrrolidin-1-yl)phenyl]pyrimidin-2-yl)amino]-8-oxa-2,10-diazatricyclo[7.4.0.0^2,6]trideca-1(13),9,11-trien-3-one], the figures for the pIC50 on PIP4K2A and on PIP4K2 B were no less than 9.00 and 8.00 to 9.00, respectively. Further, in the assay on MOLM-16, the pEC50 is less than 6.00.

On to `CN(c1nc(Nc2cnc3c(c2)N2C(=O)CC[C@H]2CO3)ncc1-c1ccc(N2CCCC2=O)cc1)C1CCOC1` (stereo partly drawn) [Compound 3, (6S)-12-({4-[methyl(oxolan-3-yl)amino]-5-[4-(2-oxopyrrolidin-1-yl)phenyl]pyrimidin-2-yl}amino)-8-oxa-2,10-diazatricyclo[7.4.0.0^2,6]trideca-1(13),9,11-trien-3-one], for which the pIC50 against PIP4K2A is no less than 9.00; on PIP4K2 B, 8.00 to 9.00. In addition, in the assay with MOLM-16, the pEC50 was less than 6.00.

For `CN(c1nc(Nc2cnc3c(c2)N2C(=O)CC[C@H]2CO3)ncc1-c1ccc(N2CCCC2=O)cc1)[C@H]1C[C@H](O)C1` [Compound 4, (6S)-12-[(4-{methyl[(1r,3r)-3-hydroxycyclobutyl]amino}-5-[4-(2-oxopyrrolidin-1-yl)phenyl]pyrimidin-2-yl)amino]-8-oxa-2,10-diazatricyclo[7.4.0.0^2,6]trideca-1(13),9,11-trien-3-one], the pIC50 at PIP4K2A and against PIP4K2 B was 8.00 to 9.00 in each case. This molecule also gave a pEC50 in the assay with MOLM-16 of less than 6.00.

In the case of `COc1nc(Nc2cnc3c(c2)N(C(=O)OCCN(C)C)CCO3)ncc1-c1ccc(N2CCCC2=O)cc1` [Compound 5, 2-(dimethylamino)ethyl 7-({4-methoxy-5-[4-(2-oxopyrrolidin-1-yl)phenyl]pyrimidin-2-yl}amino)-1H,2H,3H-pyrido[2,3-b][1,4]oxazine-1-carboxylate], the pIC50 against PIP4K2A and against PIP4K2 B was 8.00 to 9.00 throughout. In the assay on MOLM-16, the pEC50 was 7.00 to 8.00.

With `O=C1CCCN1c1ccc(-c2cnc(Nc3cnc4c(c3)N3C(=O)CC[C@H]3CO4)nc2OCCN2CCOCC2)cc1` [Compound 6, (6S)-12-({4-[2-(morpholin-4-yl)ethoxy]-5-[4-(2-oxopyrrolidin-1-yl)phenyl]pyrimidin-2-yl}amino)-8-oxa-2,10-diazatricyclo[7.4.0.0^2,6]trideca-1(9),10,12-trien-3-one], the pIC50 against PIP4K2A and against PIP4K2 B was 8.00 to 9.00 in each case. For the same molecule, the pEC50 in the assay on MOLM-16 was 7.00 to 8.00.

In the case of `COc1nc(Nc2cncc(N3CCC(N(C)C)CC3)c2)ncc1-c1ccc(-c2nnccc2C)cc1` [Compound 17, N-{5-[4-(dimethylamino)piperidin-1-yl]pyridin-3-yl}-4-methoxy-5-[4-(4-methylpyridazin-3-yl)phenyl]pyrimidin-2-amine], the pIC50 against PIP4K2A and against PIP4K2 B was 7.00 to 8.00 throughout.

As for `CCN(CC)CCOC(=O)N1CCOc2ncc(Nc3ncc(-c4ccc(N5C(=O)CC[C@H]5C)cc4)cn3)cc21` [Compound 22, 2-(diethylamino)ethyl 7-[(5-{4-[(2R)-2-methyl-5-oxopyrrolidin-1-yl]phenyl}pyrimidin-2-yl)amino]-1H,2H,3H-pyrido[2,3-b][1,4]oxazine-1-carboxylate], the pIC50 at PIP4K2A and at PIP4K2 B was 7.00 to 8.00 in each case.

For `CCN(CC)CCOC(=O)N1CCOc2ncc(Nc3ncc(-c4ccc(N5CCCC5=O)cc4)cn3)cc21` [Compound 23, 2-(diethylamino)ethyl 7-({5-[4-(2-oxopyrrolidin-1-yl)phenyl]pyrimidin-2-yl}amino)-1H,2H,3H-pyrido[2,3-b][1,4]oxazine-1-carboxylate], the pIC50 against PIP4K2A and on PIP4K2 B was 7.00 to 8.00 in each case.

Consider `CCN(CC)CCN(C)C(=O)N1CCOc2ncc(Nc3ncc(-c4ccc(N5C(=O)CC[C@H]5C)cc4)c(OC)n3)cc21` [Compound 24, N-[2-(diethylamino)ethyl]-7-[(4-methoxy-5-{4-[(2R)-2-methyl-5-oxopyrrolidin-1-yl]phenyl}pyrimidin-2-yl)amino]-N-methyl-1H,2H,3H-pyrido[2,3-b][1,4]oxazine-1-carboxamide], for which the pIC50 was 6.00 to 7.00 against PIP4K2A and 7.00 to 8.00 on PIP4K2 B.

Turning to `CCN(CC)CCN(C)C(=O)N1CCOc2ncc(Nc3ncc(-c4ccc(N5C(=O)CC[C@H]5C)cc4)cn3)cc21` [Compound 25, N-[2-(diethylamino)ethyl]-N-methyl-7-[(5-{4-[(2R)-2-methyl-5-oxopyrrolidin-1-yl]phenyl}pyrimidin-2-yl)amino]-1H,2H,3H-pyrido[2,3-b][1,4]oxazine-1-carboxamide], the pIC50 on PIP4K2A and on PIP4K2 B was 6.00 to 7.00 each time.

Regarding `CP(C)(=O)c1ccc(-c2ccc(Nc3cnc4c(c3)N3C(=O)CC[C@H]3CO4)nc2)cc1` [Compound 27, (6S)-12-({5-[4-(dimethylphosphoryl)phenyl]pyridin-2-yl}amino)-8-oxa-2,10-diazatricyclo[7.4.0.0^2,6]trideca-1(9),10,12-trien-3-one], the pIC50 at PIP4K2A and on PIP4K2 B was less than 6.00 each time.
